Assays:
[1] = target: DNA polymerase I, thermostable (Thermus aquaticus, UniProt P19821); assay: Tested for inhibitory activity against Taq DNA polymerase
[2] = target: Telomerase reverse transcriptase (Homo sapiens, UniProt O14746); assay: Tested for inhibitory activity against Telomerase in telomerase repeat amplification protocol (TRAP) assay
Sequence of Telomerase reverse transcriptase (O14746 whole entry): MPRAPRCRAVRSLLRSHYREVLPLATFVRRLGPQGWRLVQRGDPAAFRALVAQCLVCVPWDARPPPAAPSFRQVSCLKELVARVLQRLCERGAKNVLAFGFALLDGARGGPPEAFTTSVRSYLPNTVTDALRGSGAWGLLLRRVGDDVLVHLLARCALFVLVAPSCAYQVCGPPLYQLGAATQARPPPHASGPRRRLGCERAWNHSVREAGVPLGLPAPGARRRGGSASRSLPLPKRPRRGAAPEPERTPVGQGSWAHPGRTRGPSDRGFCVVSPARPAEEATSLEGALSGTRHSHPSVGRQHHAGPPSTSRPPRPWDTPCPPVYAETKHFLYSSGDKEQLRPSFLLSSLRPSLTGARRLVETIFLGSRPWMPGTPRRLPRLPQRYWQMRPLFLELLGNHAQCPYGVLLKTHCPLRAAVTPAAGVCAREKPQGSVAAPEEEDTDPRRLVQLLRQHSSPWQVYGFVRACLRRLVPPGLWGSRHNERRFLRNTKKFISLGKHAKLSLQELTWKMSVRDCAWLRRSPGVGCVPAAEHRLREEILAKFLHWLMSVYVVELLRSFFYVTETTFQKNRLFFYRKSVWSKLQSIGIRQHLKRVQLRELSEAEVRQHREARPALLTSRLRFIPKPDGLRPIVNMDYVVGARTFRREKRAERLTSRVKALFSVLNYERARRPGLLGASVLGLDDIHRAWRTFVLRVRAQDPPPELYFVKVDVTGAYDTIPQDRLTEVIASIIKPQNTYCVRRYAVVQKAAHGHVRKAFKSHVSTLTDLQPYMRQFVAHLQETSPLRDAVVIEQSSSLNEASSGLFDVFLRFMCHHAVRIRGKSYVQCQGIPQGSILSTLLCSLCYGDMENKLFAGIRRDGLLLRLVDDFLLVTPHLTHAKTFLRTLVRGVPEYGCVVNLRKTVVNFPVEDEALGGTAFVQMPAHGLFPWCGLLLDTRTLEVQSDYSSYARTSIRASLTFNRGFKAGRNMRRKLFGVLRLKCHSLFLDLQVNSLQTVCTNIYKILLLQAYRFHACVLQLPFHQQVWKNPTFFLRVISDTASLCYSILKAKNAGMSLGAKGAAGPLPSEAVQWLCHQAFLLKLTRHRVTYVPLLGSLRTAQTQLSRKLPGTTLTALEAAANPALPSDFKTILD

Sequence of DNA polymerase I, thermostable (P19821 whole entry): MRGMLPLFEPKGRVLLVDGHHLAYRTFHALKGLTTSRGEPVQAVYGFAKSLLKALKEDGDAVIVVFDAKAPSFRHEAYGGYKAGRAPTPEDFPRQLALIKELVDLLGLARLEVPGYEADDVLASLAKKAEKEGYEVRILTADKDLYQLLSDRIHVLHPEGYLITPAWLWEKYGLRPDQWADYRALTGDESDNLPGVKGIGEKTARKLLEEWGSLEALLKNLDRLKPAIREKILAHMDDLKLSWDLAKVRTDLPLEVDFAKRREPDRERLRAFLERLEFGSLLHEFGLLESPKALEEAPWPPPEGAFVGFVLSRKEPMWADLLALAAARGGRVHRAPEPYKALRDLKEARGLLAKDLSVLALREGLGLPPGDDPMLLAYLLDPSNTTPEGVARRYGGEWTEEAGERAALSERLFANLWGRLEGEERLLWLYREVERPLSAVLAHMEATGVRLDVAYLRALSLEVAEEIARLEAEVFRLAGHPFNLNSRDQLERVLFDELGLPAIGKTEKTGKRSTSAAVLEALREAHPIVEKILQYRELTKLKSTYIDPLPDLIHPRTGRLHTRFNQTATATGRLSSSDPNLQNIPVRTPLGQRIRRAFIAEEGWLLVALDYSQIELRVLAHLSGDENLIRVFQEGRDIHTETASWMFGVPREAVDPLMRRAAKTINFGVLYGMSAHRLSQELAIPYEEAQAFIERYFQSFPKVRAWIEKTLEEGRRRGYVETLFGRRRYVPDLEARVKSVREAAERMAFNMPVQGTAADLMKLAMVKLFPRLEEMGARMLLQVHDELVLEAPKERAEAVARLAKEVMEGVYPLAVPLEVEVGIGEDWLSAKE

| IC50 [1] [nM] | IC50 [2] [nM] | Structure (SMILES) |
| --- | --- | --- |
| 5000 | 500 | CN(C)CCCNc1nc2ccccc2c2[nH]c3c4cc([N+](=O)[O-])ccc4ccc3c12 |
| > 10000 | 9800 | COc1ccc2ccc3c([nH]c4c5ccccc5nc(NCCN(C)C)c34)c2c1 |
| 2200 | 1100 | COc1ccc2ccc3c([nH]c4c5ccccc5nc(NCCCN(C)C)c34)c2c1 |
| 900 | 1000 | COc1ccc2c(ccc3c2[nH]c2c4ccccc4nc(NCCCN(C)C)c32)c1 |
